Laboratory results reported in paper PMC11233931, “Remodeling tumor‐associated macrophage for anti‐cancer effects by rational design of irreversible inhibition of mitogen‐activated protein kinase‐activated protein kinase 2” (MedComm, 2024).
Read-outs that look alike come from different tables or passages of the source.

How the values were obtained:
Assay in all cases: Eurofins kinase selectivity profile against 380 other human recombinant kinases (Table S2)
Assay type in all cases: biochemical
[1] = molecular target: T1, 380 human recombinant protein kinases (Homo sapiens, UniProt P12931); conditions: for inhibition at 0.01 µM: 10 nM; for inhibition at 0.1 µM: 100 nM; for inhibition at 1 µM: 1000 nM
T1 construct: purchased Eurofins (Celle Lévescault)
T1 sequence (P12931 whole entry): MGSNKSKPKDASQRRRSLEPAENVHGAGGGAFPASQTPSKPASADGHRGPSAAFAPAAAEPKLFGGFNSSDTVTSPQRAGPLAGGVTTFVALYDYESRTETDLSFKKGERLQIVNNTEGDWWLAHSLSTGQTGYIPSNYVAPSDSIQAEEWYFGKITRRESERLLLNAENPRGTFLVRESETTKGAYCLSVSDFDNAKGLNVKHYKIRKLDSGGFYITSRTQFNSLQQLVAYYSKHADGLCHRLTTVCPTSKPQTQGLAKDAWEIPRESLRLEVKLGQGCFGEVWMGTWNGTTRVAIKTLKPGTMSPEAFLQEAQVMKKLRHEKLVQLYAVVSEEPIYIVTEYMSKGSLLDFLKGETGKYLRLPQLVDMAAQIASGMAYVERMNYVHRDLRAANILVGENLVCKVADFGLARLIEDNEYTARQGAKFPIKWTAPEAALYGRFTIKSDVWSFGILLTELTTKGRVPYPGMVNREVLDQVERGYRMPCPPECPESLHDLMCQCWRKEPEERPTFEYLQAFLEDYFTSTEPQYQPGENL
In short: (§1)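 The inhibitor was sent to a contract lab and screened at various concentrations against 380 human recombinant protein kinases. This served as a counter-screen for MK2 specificity.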

[2] = molecular target: T2, 380 human recombinant protein kinases (Homo sapiens, UniProt Q96GD4); conditions: Aurora-B(h), read-out: Inhibition rate
T2 construct: purchased Eurofins (Celle Lévescault)
T2 sequence (Q96GD4 whole entry): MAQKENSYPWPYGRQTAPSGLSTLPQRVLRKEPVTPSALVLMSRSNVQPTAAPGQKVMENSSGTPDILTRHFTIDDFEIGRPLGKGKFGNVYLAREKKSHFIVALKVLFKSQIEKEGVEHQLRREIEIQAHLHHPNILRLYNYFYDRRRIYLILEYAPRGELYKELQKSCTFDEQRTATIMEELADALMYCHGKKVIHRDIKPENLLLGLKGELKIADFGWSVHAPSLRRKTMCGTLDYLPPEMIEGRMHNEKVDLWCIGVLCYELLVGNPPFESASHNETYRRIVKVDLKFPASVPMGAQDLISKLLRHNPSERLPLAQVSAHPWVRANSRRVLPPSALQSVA
In short: as §1

[3] = molecular target: T3, 380 human recombinant protein kinases (Homo sapiens, UniProt Q02156); conditions: PKCε(h), read-out: Inhibition rate
T3 construct: purchased Eurofins (Celle Lévescault)
T3 sequence (Q02156 1-737): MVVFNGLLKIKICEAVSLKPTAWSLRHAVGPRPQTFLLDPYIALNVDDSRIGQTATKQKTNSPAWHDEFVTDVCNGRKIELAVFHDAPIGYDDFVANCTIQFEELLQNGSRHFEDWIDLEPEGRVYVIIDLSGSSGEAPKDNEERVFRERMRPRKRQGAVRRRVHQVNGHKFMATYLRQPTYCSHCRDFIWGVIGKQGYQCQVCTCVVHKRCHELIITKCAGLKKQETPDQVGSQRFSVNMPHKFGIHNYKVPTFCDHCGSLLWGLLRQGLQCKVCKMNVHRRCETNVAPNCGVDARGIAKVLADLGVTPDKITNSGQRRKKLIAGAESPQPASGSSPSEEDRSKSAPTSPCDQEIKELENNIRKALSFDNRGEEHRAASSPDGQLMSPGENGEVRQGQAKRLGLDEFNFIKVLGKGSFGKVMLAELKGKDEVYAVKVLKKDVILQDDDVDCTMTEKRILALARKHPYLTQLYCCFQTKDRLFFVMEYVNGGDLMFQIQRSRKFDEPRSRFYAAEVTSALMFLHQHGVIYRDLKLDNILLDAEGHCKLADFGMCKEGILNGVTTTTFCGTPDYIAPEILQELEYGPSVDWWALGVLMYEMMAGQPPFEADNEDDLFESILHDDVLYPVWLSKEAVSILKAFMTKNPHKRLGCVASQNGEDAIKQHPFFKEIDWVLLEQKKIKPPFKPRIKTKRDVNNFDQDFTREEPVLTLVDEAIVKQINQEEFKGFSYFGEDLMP
In short: as §1

[4] = molecular target: T4, 380 human recombinant protein kinases (Homo sapiens, UniProt Q08345); conditions: DDR1(h), read-out: Inhibition rate
T4 construct: purchased Eurofins (Celle Lévescault)
In short: as §1

[5] = molecular target: T5, 380 human recombinant protein kinases (Homo sapiens, UniProt Q13976); conditions: PKG1α(h), read-out: Inhibition rate
T5 construct: purchased Eurofins (Celle Lévescault)
T5 sequence (Q13976 1-671): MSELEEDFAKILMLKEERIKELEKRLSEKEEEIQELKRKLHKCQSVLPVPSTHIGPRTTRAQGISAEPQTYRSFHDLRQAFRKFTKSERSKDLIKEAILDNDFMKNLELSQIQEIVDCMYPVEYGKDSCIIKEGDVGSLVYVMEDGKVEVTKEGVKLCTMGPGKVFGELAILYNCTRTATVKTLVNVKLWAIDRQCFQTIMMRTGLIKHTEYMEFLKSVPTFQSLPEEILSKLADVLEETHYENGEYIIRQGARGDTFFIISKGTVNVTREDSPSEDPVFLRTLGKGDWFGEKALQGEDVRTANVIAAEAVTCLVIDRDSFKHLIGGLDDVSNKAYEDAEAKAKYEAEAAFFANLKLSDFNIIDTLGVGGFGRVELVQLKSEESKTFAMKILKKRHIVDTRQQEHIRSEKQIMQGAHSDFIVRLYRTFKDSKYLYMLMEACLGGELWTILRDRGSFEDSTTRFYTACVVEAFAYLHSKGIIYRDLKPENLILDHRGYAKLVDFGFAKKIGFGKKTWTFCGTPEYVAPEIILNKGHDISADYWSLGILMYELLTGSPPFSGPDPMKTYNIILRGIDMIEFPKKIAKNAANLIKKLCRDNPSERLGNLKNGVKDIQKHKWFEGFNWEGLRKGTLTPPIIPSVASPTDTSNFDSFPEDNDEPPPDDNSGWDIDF
In short: as §1

[6] = molecular target: T6, 380 human recombinant protein kinases (Homo sapiens, UniProt P09619); conditions: PDGFRβ(h), read-out: Inhibition rate
T6 construct: purchased Eurofins (Celle Lévescault)
T6 sequence (P09619 33-1106): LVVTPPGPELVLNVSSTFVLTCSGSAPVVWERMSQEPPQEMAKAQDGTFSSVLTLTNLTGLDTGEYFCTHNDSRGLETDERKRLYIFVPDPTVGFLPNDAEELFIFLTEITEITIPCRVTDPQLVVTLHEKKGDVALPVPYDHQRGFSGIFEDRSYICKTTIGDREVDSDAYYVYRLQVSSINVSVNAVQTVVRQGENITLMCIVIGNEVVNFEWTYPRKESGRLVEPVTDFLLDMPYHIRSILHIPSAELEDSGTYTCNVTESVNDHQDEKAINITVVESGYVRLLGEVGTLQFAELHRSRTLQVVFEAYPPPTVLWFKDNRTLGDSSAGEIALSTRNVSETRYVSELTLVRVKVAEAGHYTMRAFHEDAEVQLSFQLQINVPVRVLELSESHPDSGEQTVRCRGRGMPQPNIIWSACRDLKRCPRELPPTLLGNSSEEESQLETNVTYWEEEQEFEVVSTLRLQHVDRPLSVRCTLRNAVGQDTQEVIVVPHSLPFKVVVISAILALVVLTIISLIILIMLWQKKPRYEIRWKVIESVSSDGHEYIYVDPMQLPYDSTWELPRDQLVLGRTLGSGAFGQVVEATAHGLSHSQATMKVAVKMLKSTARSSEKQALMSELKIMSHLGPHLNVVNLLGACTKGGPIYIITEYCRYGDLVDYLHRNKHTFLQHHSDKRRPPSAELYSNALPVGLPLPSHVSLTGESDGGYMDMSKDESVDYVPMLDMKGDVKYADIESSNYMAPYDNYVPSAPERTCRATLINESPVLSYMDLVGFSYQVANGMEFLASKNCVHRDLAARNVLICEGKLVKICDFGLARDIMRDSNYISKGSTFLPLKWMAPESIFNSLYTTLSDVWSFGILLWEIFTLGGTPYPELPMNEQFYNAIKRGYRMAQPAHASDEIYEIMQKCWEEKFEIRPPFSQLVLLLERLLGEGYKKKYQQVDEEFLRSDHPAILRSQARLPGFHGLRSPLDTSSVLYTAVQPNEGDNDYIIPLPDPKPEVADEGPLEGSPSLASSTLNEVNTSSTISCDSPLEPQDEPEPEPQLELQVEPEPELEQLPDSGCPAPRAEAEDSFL
In short: as §1

[7] = molecular target: T7, 380 human recombinant protein kinases (Homo sapiens, UniProt P15056); conditions: B-Raf(h), read-out: Inhibition rate
T7 construct: purchased Eurofins (Celle Lévescault)
T7 sequence (P15056 whole entry): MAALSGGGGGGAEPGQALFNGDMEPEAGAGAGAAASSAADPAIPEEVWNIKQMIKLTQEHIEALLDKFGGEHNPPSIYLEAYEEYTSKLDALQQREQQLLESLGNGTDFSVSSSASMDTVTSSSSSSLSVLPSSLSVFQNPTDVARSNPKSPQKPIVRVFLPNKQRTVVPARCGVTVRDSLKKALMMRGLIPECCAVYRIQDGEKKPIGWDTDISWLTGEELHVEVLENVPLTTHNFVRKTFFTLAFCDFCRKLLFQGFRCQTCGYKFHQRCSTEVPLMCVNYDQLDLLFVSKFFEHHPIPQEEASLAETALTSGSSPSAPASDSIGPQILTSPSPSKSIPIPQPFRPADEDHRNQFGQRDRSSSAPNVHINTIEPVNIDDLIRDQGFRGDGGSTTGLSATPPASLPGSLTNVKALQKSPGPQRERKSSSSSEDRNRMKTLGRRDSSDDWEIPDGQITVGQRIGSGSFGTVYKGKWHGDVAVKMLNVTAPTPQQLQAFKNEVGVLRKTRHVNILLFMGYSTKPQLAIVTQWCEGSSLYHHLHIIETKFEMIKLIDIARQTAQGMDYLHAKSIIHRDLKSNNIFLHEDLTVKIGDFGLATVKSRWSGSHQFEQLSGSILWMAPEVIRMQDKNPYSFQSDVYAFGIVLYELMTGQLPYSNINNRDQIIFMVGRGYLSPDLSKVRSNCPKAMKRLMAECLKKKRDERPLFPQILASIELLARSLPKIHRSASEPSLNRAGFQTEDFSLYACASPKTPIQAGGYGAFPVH
In short: as §1

[8] = molecular target: T8, 380 human recombinant protein kinases (Homo sapiens, UniProt Q9BYP7); conditions: WNK3(h), read-out: Inhibition rate (%)
T8 construct: purchased Eurofins (Celle Lévescault)
T8 sequence (Q9BYP7 whole entry): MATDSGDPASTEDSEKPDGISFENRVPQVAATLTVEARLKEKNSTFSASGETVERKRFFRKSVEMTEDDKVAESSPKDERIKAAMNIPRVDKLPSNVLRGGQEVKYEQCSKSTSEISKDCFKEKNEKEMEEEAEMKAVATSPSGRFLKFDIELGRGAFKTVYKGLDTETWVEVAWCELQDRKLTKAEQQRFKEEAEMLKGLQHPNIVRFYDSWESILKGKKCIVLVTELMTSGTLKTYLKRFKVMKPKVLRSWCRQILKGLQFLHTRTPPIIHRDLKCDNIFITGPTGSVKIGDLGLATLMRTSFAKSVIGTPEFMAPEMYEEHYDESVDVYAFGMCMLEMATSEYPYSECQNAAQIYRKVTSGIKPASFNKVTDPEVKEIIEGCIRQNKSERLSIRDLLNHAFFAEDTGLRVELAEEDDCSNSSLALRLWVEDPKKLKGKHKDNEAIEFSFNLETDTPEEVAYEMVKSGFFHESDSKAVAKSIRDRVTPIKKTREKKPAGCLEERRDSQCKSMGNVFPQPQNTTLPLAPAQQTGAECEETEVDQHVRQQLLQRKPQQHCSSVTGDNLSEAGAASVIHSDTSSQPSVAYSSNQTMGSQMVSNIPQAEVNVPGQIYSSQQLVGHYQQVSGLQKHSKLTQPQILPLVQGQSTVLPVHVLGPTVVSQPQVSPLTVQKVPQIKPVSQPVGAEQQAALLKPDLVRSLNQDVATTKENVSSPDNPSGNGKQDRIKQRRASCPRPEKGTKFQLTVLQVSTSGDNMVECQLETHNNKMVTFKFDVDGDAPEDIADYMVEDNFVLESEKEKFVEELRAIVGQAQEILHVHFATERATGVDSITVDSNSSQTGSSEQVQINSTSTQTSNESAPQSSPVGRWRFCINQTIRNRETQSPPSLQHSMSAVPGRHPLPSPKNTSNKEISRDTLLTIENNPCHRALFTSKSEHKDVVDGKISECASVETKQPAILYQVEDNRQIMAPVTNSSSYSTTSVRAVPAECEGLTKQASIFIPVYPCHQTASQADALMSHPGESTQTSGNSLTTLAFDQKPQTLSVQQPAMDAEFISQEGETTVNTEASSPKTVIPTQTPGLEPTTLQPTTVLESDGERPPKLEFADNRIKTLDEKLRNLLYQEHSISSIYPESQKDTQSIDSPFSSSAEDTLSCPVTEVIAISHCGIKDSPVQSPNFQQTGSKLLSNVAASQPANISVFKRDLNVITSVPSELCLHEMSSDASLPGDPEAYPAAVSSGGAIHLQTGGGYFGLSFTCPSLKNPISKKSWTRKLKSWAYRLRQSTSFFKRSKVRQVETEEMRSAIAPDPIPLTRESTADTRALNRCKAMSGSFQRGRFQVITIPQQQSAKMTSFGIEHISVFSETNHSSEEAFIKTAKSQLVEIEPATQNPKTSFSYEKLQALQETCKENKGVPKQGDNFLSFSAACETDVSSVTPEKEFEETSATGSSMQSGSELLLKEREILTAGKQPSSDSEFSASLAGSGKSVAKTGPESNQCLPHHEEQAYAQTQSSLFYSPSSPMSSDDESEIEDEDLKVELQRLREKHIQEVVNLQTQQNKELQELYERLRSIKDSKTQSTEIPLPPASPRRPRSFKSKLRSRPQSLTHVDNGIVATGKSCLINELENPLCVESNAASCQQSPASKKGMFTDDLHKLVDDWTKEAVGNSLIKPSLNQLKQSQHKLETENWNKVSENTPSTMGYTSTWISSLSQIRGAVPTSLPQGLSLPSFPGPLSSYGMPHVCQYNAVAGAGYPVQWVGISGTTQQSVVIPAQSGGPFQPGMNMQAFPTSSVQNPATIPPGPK
In short: as §1

[9] = Src(1-530)(h), read-out: Inhibition rate (%)
[10] = cSRC(h), read-out: Inhibition rate

C=CC(=O)Nc1cc(-c2cc(-c3cc4c([nH]3)CCNC4=O)ccn2)ccc1OC(F)(F)F [compound 11]
inhibition at 0.01 µM [1, 9]: 6%
inhibition at 0.1 µM [1, 9]: 5%
inhibition at 1 µM [1, 9]: -1%
inhibition at 0.01 µM [1, 10]: 1%
inhibition at 0.1 µM [1, 10]: 8%
inhibition at 1 µM [1, 10]: 10%
inhibition at 0.01 µM ([2]; 10 nM): 4%
inhibition at 0.1 µM ([2]; 100 nM): 19%
inhibition at 1 µM ([2]; 1000 nM): 27%
inhibition at 0.01 µM ([3]; 10 nM): 1%
inhibition at 0.1 µM ([3]; 100 nM): 12%
inhibition at 1 µM ([3]; 1000 nM): 13%
inhibition at 0.01 µM ([4]; 10 nM): 0%
inhibition at 0.1 µM ([4]; 100 nM): -1%
inhibition at 1 µM ([4]; 1000 nM): -7%
inhibition at 0.01 µM ([5]; 10 nM): 1%
inhibition at 0.1 µM ([5]; 100 nM): -4%
inhibition at 1 µM ([5]; 1000 nM): 8%
inhibition at 0.01 µM ([6]; 10 nM): 0%
inhibition at 0.1 µM ([6]; 100 nM): -16%
inhibition at 1 µM ([6]; 1000 nM): -11%
inhibition at 0.01 µM ([7]; 10 nM): -7%
inhibition at 0.1 µM ([7]; 100 nM): -7%
inhibition at 1 µM ([7]; 1000 nM): 4%
inhibition at 0.01 µM ([8]; 10 nM): 0%
inhibition at 0.1 µM ([8]; 100 nM): 7%
inhibition at 1 µM ([8]; 1000 nM): 9%
